Measured values: patent publication US10556860B2, “hTERT modulators and methods of use” (Arizona Board of Regents on Behalf of the University of …, priority 2015, dated 2020)

Experiments:
BCL2 mRNA = test: qPCR of BCL2 mRNA in MCF7 cells; format: cell-based, human; conditions: 72 h
Protocol: (§1) qPCR. MCF7 and melanoma cells were treated with GTC365 and BRACO-19 for 72 h. Total RNA was extracted using an RNeasy mini-prep kit (Qiagen) and quantitated by measuring absorbance at 260 nm. cDNA was synthesized using a Takara PrimeScript™ RT Reagent Kit with gDNA eraser and then used as a template for qPCR. The qPCR was performed using Kapa Probe Fast qPCR Master Mix with ABI Taqman probes of hTERT (Hs00972656_m1), BCL2 (HS00608023_m1, FAM-labeled) or MYC (Hs00153408_m1), and GAPDH (Hs02758991_g1, VIC-labeled). The Ct values were measured by running Rotor-Gene Q, and the relative quantity of hTERT, BCL2, and MYC mRNA was obtained compared to GAPDH as an internal control.
(§2) BCL2 is a downstream molecule to hTERT such that BCL2 expression is activated by hTERT to repress apoptosis. To further define the effect of GTC365 on the transcription of hTERT, the relative mRNA levels of MYC and BCL2 were determined by quantitative PCR analysis in MCF7 cells after treatment with GTC365 for 72 h. […] A series of GTC260 analogs were synthesized and their effect on hTERT gene expression in MCF7A and U87 cells determined (FIG. 7). […] Therefore, GTC365 directly repressed the transcription of hTERT and then led to a downstream decrease of BCL2 expression.

MYC mRNA = test: qPCR of MYC mRNA in MCF7 cells; format: cell-based, human; conditions: 72 h
Protocol: as §1, §2

Cc1cc(NC(=O)NC(=O)c2ccccc2NC(=O)C(C)N)ccc1Oc1ncc(Br)cn1 (centres unmarked) [GTC260]
effect on BCL2 mRNA level (BCL2 mRNA): direct repression of hTERT transcription and the downstream molecule BCL2 | effect on MYC mRNA level (MYC mRNA): no effect
